Source: paper PMC9775191, “A Subset Screen of the Compounds Australia Scaffold Library Identifies 7-Acylaminodibenzoxazepinones as Potent and Selective Hits for Anti-Giardia Drug Discovery” (Biomedicines, 2022)

System: G. duodenalis BRIS/91/HEPU/1279
Assay: Primary Giardia screen at 10 µM (live-cell imaging, automated counting)
Assay type: cell-based, Giardia duodenalis
Settings: for % Inhibition n=1 48h / % Inhibition n=1 24h: first singlicate assay; for % Inhibition n=2 24h / % Inhibition n=2 48h: re-assessment
Method in brief: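 Percent growth versus 0.2% DMSO vehicle, background-corrected with media-only wells, is reported at 24 and 48 h from automated live-cell counts. Testing used 10 μM final in a 3% O2 atmosphere, with plate quality checked by Z' factor.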

Compound | % Inhibition n=1 48h | also measured
Cc1cccc(NC(=O)Cn2c(=O)n(-c3ccc(F)cc3)c(=O)c3c(C)c(C(=O)N(C)C)sc32)c1 [SN00794395] | 21.9% | –
CCCNc1ncnc2c1cnn2-c1ccc(C)cc1 [SN00794411] | 0.0% | –
Cc1ccc(Cl)cc1-n1ncc2c(NCCO)ncnc21 [SN00794417] | 8.1% | –
O=C(Nc1ccc(Br)cc1)c1ccc(F)c(S(=O)(=O)NCCc2ccccc2)c1 [SN00794458] | 3.9% | –
CCN(CC)S(=O)(=O)c1ccc2[nH]cc(C(=O)NCCCN3CCCC3)c(=O)c2c1 [SN00794535] | 13.0% | –
COc1ccc(CCNC(=O)C2c3ccccc3C(=O)N2Cc2ccc(C)cc2)cc1OC (stereo not drawn) [SN00794542] | 6.3% | –
CC(=O)Nc1cc(C(=O)NCCCN2CCC(C)CC2)ccc1S(=O)(=O)c1ccc(Cl)cc1 [SN00794609] | 23.9% | –
Cc1nccc2[nH]c(=O)c(C(=O)NCCCN(C)C3CCCCC3)cc12 [SN00794671] | 0.0% | –
CCOc1ccc(-c2nc(CSCC(=O)N3CCN(c4ccc(Cl)cc4)CC3)c(C)o2)cc1 [SN00794684] | 0.0% | –
CCN(c1ccccc1)S(=O)(=O)c1ccc2[nH]cc(C(=O)NCCOC)c(=O)c2c1 [SN00794693] | 10.4% | –
CCOC(=O)c1cc(-c2ccccc2)n(CCC(=O)N2CCn3c2nc2ccccc23)c1C [SN00794728] | 10.1% | –
Cc1ccc(NS(=O)(=O)c2ccc(-n3cccn3)cc2)cc1 [SN00794732] | 6.0% | –
O=C(NCc1ccccc1)c1ccc(-c2cc(N3CCOCC3)ncn2)cc1 [SN00794761] | 12.2% | –
O=C(Nc1cccc(C(=O)N2CCCC2C(=O)NCCc2ccccc2)c1)c1cccs1 (stereo not drawn) [SN00794771] | 3.7% | –
CCNC(=O)C1CCCN1C(=O)c1cccc(NC(=O)c2ccc(Br)cc2)c1 (stereo not drawn) [SN00794777] | 0.0% | –
COc1cc(OC)c(NC(=O)N2CCN(c3nc4ccccc4n3C)CC2)cc1Cl [SN00794807] | 0.0% | –
O=C(c1csc(-c2ccncc2)n1)N1CCN(c2ccccc2)CC1 [SN00794830] | 15.8% | –
O=S(=O)(Cc1ccc(Cl)cc1)c1nc2ccccc2nc1N1CCC2(CC1)OCCO2 [SN00794883] | 15.2% | –
Cc1ccc2c(c1)n(Cc1ccc(Cl)cc1)c(=O)c1nc(C(=O)NCCc3cccs3)nn12 [SN00794982] | 29.9% | –
Cc1ccc(NC(=O)c2nc3c(=O)n(Cc4ccccc4C)c4cc(C)ccc4n3n2)cc1 [SN00794983] | 3.1% | –
Cc1ccnc(N2CCCC(C(=O)NC3CCCC3)C2)n1 (stereo not drawn) [SN00795015] | 10.9% | –

Compound | % Inhibition n=1 48h | also measured
Cc1ccnc(N2CCCC(C(=O)N3CC=C(c4ccccc4)CC3)C2)n1 (stereo not drawn) [SN00795039] | 57.6% | Average % Inhibition 24h: 18.0%; % Inhibition n=1 24h: 29.9%; % Inhibition n=2 24h: 6.1%; Average % Inhibition 48h: 46.1%; % Inhibition n=2 48h: 34.6%
Cc1ccc(C2c3cccn3-c3ccccc3CN2C(=O)c2cccnc2)cc1 (stereo not drawn) [SN00795042] | 0.0% | –
Cc1ccc(-c2cc3nc(C)cc(N4CCC(C(=O)NCCCN5CCCC5)CC4)n3n2)cc1 [SN00795048] | 16.1% | –
Cc1cc(N2CCC(C(=O)N3CCN(c4ccc(F)cc4)CC3)CC2)n2nc(-c3ccccc3)cc2n1 [SN00795072] | 0.0% | –
O=S(=O)(c1ccc(-c2cnc(C3CCC3)o2)s1)N1CCC2(CC1)OCCO2 [SN00795093] | 7.0% | –
O=S(=O)(NCCC1=CCCCC1)c1ccc(-c2cnc(C3CCCC3)o2)s1 [SN00795100] | 27.9% | –
CCOc1ccc(N/C(=N\S(C)(=O)=O)Nc2cc(C)c(Cl)cc2OC)cc1 [SN00795110] | 18.1% | –
COc1ccc(CC(=O)N2CCN(Cc3nc4cc(C(=O)N5CCCC5)ccc4n3C)CC2)cc1 [SN00795130] | 13.8% | –
CCCNS(=O)(=O)c1cc(-c2nc(-c3cccc(Cl)c3)cs2)n(C)c1C [SN00795169] | 47.2% | Average % Inhibition 24h: 21.9%; % Inhibition n=1 24h: 31.8%; % Inhibition n=2 24h: 12.0%; Average % Inhibition 48h: 32.8%; % Inhibition n=2 48h: 18.5%
Cc1csc(-c2cc(S(=O)(=O)N3c4ccccc4CC3C)c(C)n2C)n1 (stereo not drawn) [SN00795179] | 71.5% | Average % Inhibition 24h: 22.6%; % Inhibition n=1 24h: 34.1%; % Inhibition n=2 24h: 11.1%; Average % Inhibition 48h: 63.7%; % Inhibition n=2 48h: 55.8%
Cc1ccc2oc(-c3noc(C(=O)NCC4CCCO4)n3)c(C)c2c1 (stereo not drawn) [SN00795207] | 0.0% | –
COc1ccc2oc(-c3noc(C(=O)NCCN4CCCCCC4)n3)c(C)c2c1 [SN00795214] | 52.1% | Average % Inhibition 24h: 11.6%; % Inhibition n=1 24h: 16.8%; % Inhibition n=2 24h: 6.3%; Average % Inhibition 48h: 56.6%; % Inhibition n=2 48h: 61.1%
Cc1ccc(S(=O)(=O)NC2CCN(C(=O)Cc3ccc(Br)cc3)CC2)cc1 [SN00795227] | 3.1% | –
O=C(c1ccco1)N1CCC(NS(=O)(=O)c2ccc(Cl)cc2)CC1 [SN00795232] | 0.0% | –
Cc1cccc(-c2nc(-c3ccc(NS(C)(=O)=O)cc3)no2)c1 [SN00795250] | 9.2% | –
COc1ccc(-c2c(C(=O)Nc3cccc(Cl)c3)nn3c(C)cc(=O)[nH]c23)cc1 [SN00795279] | 7.0% | –
Cc1cccc(-c2nc3sc(N4CCN(C(=O)NC(C)C)CC4)nn3c2NC(C)(C)C)c1 [SN00795313] | 0.0% | –
Cc1ccccc1C(=O)Nc1cnc(N2CCNCC2)c(C(=O)N(C)Cc2ccccc2)c1 [SN00795318] | 15.2% | –
Cc1cccc(C(=O)Nc2cnc(N3CCNCC3)c(C(=O)N(CC(C)C)CC(C)C)c2)c1 [SN00795320] | 14.5% | –
COCCNc1c(-c2ccc(O)cc2)nc2sc3cc(C)ccc3n12 [SN00795351] | 0.0% | –
CCOc1ccc(-c2nc3sc4cc(C)ccc4n3c2NCCOC)cc1 [SN00795352] | 0.0% | –

Compound | % Inhibition n=1 48h | also measured
Cc1ccc(S(=O)(=O)N2CCN(C)c3ccccc32)cc1 [SN00795395] | 8.6% | –
Cc1cccc(NC(=O)Nc2cc(F)c3[nH]c(=O)ccc3c2)c1C [SN00795412] | 0.0% | –
CCOC(=O)CC(NC(=O)Nc1cc(F)c2[nH]c(=O)ccc2c1)c1ccccc1 (stereo not drawn) [SN00795424] | 4.9% | –
Cc1ccc(C)c(S(=O)(=O)Nc2ccc3nnc(-c4ccccc4)n3n2)c1 [SN00795461] | 0.0% | –
O=C(NC1CC1)c1cnn2c(-c3ccccn3)ccnc12 [SN00795482] | 0.0% | –
Cc1nc2c(c(=O)n1CC(=O)Nc1cccc(F)c1)CCN(Cc1ccccc1)C2 [SN00795483] | 0.0% | –
CCOC(=O)N1CCc2c(nc(-c3ccc(C)cc3)n(CC(=O)Nc3ccc(Cl)cc3)c2=O)C1 [SN00795497] | 41.5% | –
CNC(=O)Nc1ccc(C2(C(=O)Nc3ccc(F)c(C)c3)CCC2)cc1 [SN00795530] | 0.0% | –
O=C(CCC(=O)N1CCCN(c2nc3cccnc3s2)CC1)NCCc1c[nH]c2ccccc12 [SN00795593] | 0.0% | –
CC1CCN(CCCNC(=O)c2ccc(-c3nc(-c4ccccc4)no3)cc2)CC1 [SN00795676] | 23.6% | –
O=C(c1cccc(-c2nc(-c3ccc(F)cc3)no2)c1)N1CCN(c2ccccc2)CC1 [SN00795713] | 0.9% | –
CC(C)(C)Nc1c(-c2ccc(F)cc2)nc2sc(N3CCN(Cc4ccccn4)CC3)nn12 [SN00795823] | 32.2% | –
COc1ccc(C)cc1NC(=O)Nc1c(-c2ccncc2)[nH]c2c(Cl)cccc12 [SN00795853] | 0.0% | –
CC1(C(=O)NCc2cccc(F)c2)CCCN(C(=O)Cc2cccs2)C1 (stereo not drawn) [SN00795886] | 29.2% | –
COc1ccc(S(=O)(=O)N2CCCC(C)(C(=O)NCc3ccc(F)cc3)C2)cc1 (stereo not drawn) [SN00795932] | 8.4% | –
CCCC(=O)Nc1cc(F)c2nc(N3CCCCC3)ccc2c1 [SN00795955] | 0.0% | –
O=S(=O)(Cc1ccccc1)Nc1cccc(-c2nnc(Cc3ccc4c(c3)OCO4)o2)c1 [SN00795993] | 80.2% | Average % Inhibition 24h: 17.2%; % Inhibition n=1 24h: 34.4%; % Inhibition n=2 24h: 0.0%; Average % Inhibition 48h: 46.9%; % Inhibition n=2 48h: 13.6%
COc1cccc(-n2ccn3cc(-c4ccc(OC)c(OC)c4)nc3c2=O)c1 [SN00796018] | 36.9% | –
Cc1ccc(S(=O)(=O)N2CCC3(CC2)NCCN=C3NC2CCCCCC2)c(C)c1 [SN00796055] | 0.0% | –
CCCNC(=O)N1CCN(Cc2nc3cccnc3n2-c2ccc(CC)cc2)CC1 [SN00796091] | 0.0% | –
